Experimental data reported in patent US8952025B2, “Multifunctional radical quenchers and their uses” (Arizona Board of Regents, A Body Corporate of the State of …, priority 2010, dated 2015).

Key:
[1] = test system: cultured FRDA cells; experiment: Cytoprotection of cultured FRDA cells depleted of glutathione; format: cell-based; conditions: pretreated then depleted of glutathione, read-out: Viable Cells (%)
From the text: The cells were pretreated with the compounds and then depleted of glutathione. The cell viability is expressed as percentage of total number of cells.

[2] = test system: NADH oxidase, bovine heart mitochondrial complex (I, III, IV); experiment: NADH oxidase inhibition assay, submitochondrial particles; format: biochemical
Description: Beef heart mitochondria were obtained by a large-scale procedure. Inverted submitochondrial particles (SMP) were prepared by the method of Matsuno-Yagi and Hatefi (J. Biol. Chem. 260 (1985), p. 14424), and stored in a buffer containing 0.25 M sucrose and 10 mM Tris-HCl (pH 7.4) at −80° C. Inhibitory effects of compounds on bovine heart mitochondrial complex (I, III, IV) were evaluated. Maximal dimethyl sulfoxide concentration never exceeded 2% and had no influence on the control enzymatic activity. Beef heart SMP were diluted to 0.5 mg/mL. The enzymatic activities were assayed at 30° C. and monitored spectrophotometrically with a Beckman Coulter DU-530 (340 nm, c=6.22 mM^−1 cm^−1). NADH oxidase activity was determined in a reaction medium (2.5 mL) containing 50 mM Hepes, pH 7.5, containing 5 mM MgCl2. The final mitochondrial protein concentration was 30 μg. After the pre-equilibration of SMP with inhibitor for 5 min, the initial rates were calculated from the linear portion of the traces.
The activity is expressed as percentage of control.

[3] = test system: CoQ10 deficient lymphocyte cell line; experiment: Total intracellular ATP concentration assay (luciferin-luciferase); format: cell-based, human; conditions: 48 h, glucose free media with galactose
From the text: The reductions of mitochondrial respiratory chain activity in CoQ10 deficient patients have been reported (Quinzii G M, Lopez L C, Von-Moltke J, Naini A, Krishna S, Schuelke M, Salviati L, Navas P, DiMauro S, and Hirano, M. Respiratory chain dysfunction and oxidative stress correlate with severity of primary CoQ10 deficiency. FASEB J. 2008; 22:1874-1885). The use of CoQ10 analogues to normalize and restore the respiratory chain activities could provide valuable therapeutic approach. We have evaluated the efficiency of oxidative phosphorylation in CoQ10 deficient lymphocyte (GM17932) in presence of tested CoQ10 analogues by measuring total cellular ATP content using (ViaLight® Plus ATP monitoring reagent kit, Lonza).
CoQ10 deficient lymphocyte and normal lymphocyte cell lines were obtained from Coriell Cell Repositories (Camden, N.J.; catalog number GM-17932, GM-158151, respectively). CoQ10 deficient lymphocytes were cultured under glucose-free media supplemented with galactose for two weeks to force energy production predominantly through oxidative phosphorylation rather than glycolysis (Quinzii et al.; Robinson B H, Petrova-Benedict R, Buncic J R, Wallace D C. Nonviability of cells with oxidative defects in galactose medium: A screening test for affected patient fibroblast. Biochem. Med. Metab. Biol. 1992; 48:122-126). Lymphocytes were cultured in RPMI 1640 medium glucose-free (Gibco, Grand Island, N.Y.) supplemented with 25 mM galactose, 2 mM glutamine and 1% penicillin-streptomycin (Cellgro), and 10%, dialyzed fetal bovine serum FBS 0.5 μg/mL) (GEMINI, Bio-Product), Briefly, lymphocytes (2×10^5 cell/mL), were plated (1 mL in 12-well plates) and treated with the test compounds at final concentrations of 5, 10 μM, and 25 μM and incubated at 37° C. for 48 h in a humidified atmosphere containing 5% CO2 in air. The test compounds were prepared by first making 20 mM stock solutions in DMSO. Cells were transferred (100 μL) to 96-well microtiter black-walled cell culture plates (Costar, Corning, N.Y.). The total intracellular ATP level was measured in a luminator (Clarity™ luminescence microplate reader) with the ATP Bioluminescence Assay Kit (ViaLight® Plus ATP monitoring reagent kit, Lonza) following the manufacturer's instructions. The standard curve of ATP was obtained by serial dilution of 1 mM ATP solution. After calibration against the ATP standard, the ATP content of the cell extract was determined and normalized for protein content in the cell.
To enforce the respiratory chain-dependent ATP synthesis, cells were grown for 48 hours in glucose free media supplemented with 25 mM galactose and 10% dialyzed fetal bovine serum (glucose concentration less than 0.5 μg/mL). FIG. 20 illustrates total intracellular ATP levels in CoQ10 deficient and normal lymphocytes measured using the luciferin-luciferase reaction. The levels of ATP shown in Table 1 are relative to the 100% value obtained for the CoQ10 deficient cells in FIG. 20.

| NADH oxidase activity (%) ([2]; 1 μM, percentage of control) | IC50 ([2]; beef heart SMP) [µM] | SMILES | viability at 0.1 µM [1] [%] | viability at 0.5 µM [1] [%] | viability at 2.5 µM [1] [%] | Total ATP concentration (% of control) ([3]; 5 μM) | Total ATP concentration (% of control) ([3]; 10 μM) | Total ATP concentration (% of control) ([3]; 25 μM) |
| --- | --- | --- | --- | --- | --- | --- | --- | --- |
| – | – | COc1cc(N(C)C)nc(CCCCCCCCCCO)c1O | 33 ± 4.2 | 28.3 ± 2.1 | 29.5 ± 2.1 | – | – | – |
| 40 | 10.7 | CCCCCCCCCCc1nc(N2C(C)CCC2C)nc(C)c1O (centres unmarked) | – | – | – | – | – | – |
| – | – | Cc1nc(N(C)C)nc(CCCCCCCCCCO)c1O [drawing 116] | – | – | – | 102.4 ± 1.2 % of control | 87.9 ± 4.3 % of control | 46.1 ± 1.2 % of control |
| – | – | COc1nc(N(C)C)nc(CCCCCCCCCCO)c1O [drawing 117] | – | – | – | 101.6 ± 1.4 % of control | 96.8 ± 4.0 % of control | 48.7 ± 0.8 % of control |
| – | – | CCCCCc1nc(N(C)C)nc(C)c1O [drawing 118] | – | – | – | 109.3 ± 2.3 % of control | 111.1 ± 1.5 % of control | 105.6 ± 2.4 % of control |
| – | – | CCCCCCCCCCc1nc(N(C)C)nc(C)c1O [drawing 119] | – | – | – | 106.6 ± 2.7 % of control | 98.7 ± 1.1 % of control | 75.3 ± 1.8 % of control |
| – | – | CCCCCCCCCCCCCCCCc1nc(N(C)C)nc(C)c1O [drawing 120] | – | – | – | 111.5 ± 1.8 % of control | 106.9 ± 2.7 % of control | 101.6 ± 3.1 % of control |
| – | – | CCCCCCCCCCc1nc(N(C)C)nc(OC)c1O [drawing 121] | – | – | – | 109.4 ± 5.0 % of control | 110.5 ± 6.5 % of control | 68.3 ± 2.7 % of control |
| – | – | CCCCCCCCCCCCCCCCc1nc(N(C)C)nc(OC)c1O [drawing 122] | – | – | – | 122.3 ± 1.9 % of control | 116.4 ± 0.5 % of control | 113.0 ± 1.6 % of control |
| – | – | Cc1nc(N(C)C)nc(CCCCCCCCCCO)c1O [drawing 123] | 63.6 ± 8.4 | 83.5 ± 0.7 | 82.7 ± 8.1 | – | – | – |
| – | – | Cc1cc(N(C)C)nc(CCCCCCCCCCO)c1O [drawing 124] | 54 ± 5.2 | 76.5 ± 2.1 | 81.7 ± 5 | – | – | – |
| – | – | COc1nc(N(C)C)nc(CCCCCCCCCCO)c1O [drawing 125] | 55.6 ± 5.7 | 80 ± 4 | 78.3 ± 7.5 | – | – | – |
| – | – | CCCCCc1nc(N(C)C)nc(C)c1O [drawing 127] | 46 ± 3.5 | 78.7 ± 4 | 81.3 ± 5.1 | – | – | – |
